Data taken from US20090092624A1, “Antiinfective Flavononol Compounds and Methods of Use Thereof” (priority 2007, published 2009).
“And” between values parts separate entries of the source, which are not always exact repeats. Equal values may be shown once. “Also recorded” adds a separate entry of the source.

Assays:
[1] = test system: Human influenza A virus subtype /PR/8/34 H1N1; test: microbe, parasite or virus in culture; format: cell-based, Influenza A/PR/8/34 (H1N1); details: MDCK
[2] = test system: Candida albicans (ATCC# 96133); test: microbe, parasite or virus in culture; details: ATCC96133, read-out: IC50 value, adhesion inhibition
[3] = test system: Escherichea coli (ATCC# 53499); test: microbe, parasite or virus in culture; details: Escherichia coli, ATCC53499, read-out: IC50 value, adhesion inhibition
[4] = test system: H1N1 virions; format: binding, Influenza A virus (H1N1)

Row | Structure (SMILES) | IC50 [1] | IC50 [2] | IC50 [3] | direct binding to H1N1 virus surface [4]
1 | NC12CC3CC(CC(C3)C1)C2 [Amantadine] | 4.7 µg/mL and 27 µM |  |  | 
2 | CCOC(=O)C1=C[C@@H](OC(CC)CC)[C@H](NC(C)=O)[C@@H](N)C1 [Oseltamivir] | 0.1 µg/mL and 320 nM |  |  | 
3 | O=C1c2c(O)cc(O)cc2OC(c2cc(O)c(O)c(O)c2)C1O (stereo not drawn) [Tristenonol aglycone, 3,5,7-Trihydroxy-2-(3,4,5-trihydroxyphenyl)-chroman-4-one] | 2.8 µg/mL and 5.4 µM | 89.1 µM | 60 µM | does bind directly to the virus surface; also recorded: bound to the H1N1 virus surface
